According to patent US9693992B2 (MannKind Corporation, priority 2010, dated 2017):

molecular target: IRE-1α (Homo sapiens (Human), UniProt O75460); assay: Cellular EC50: endogenous XBP-1 splicing in myeloma cells (MM.1s, DTT stress, RT-PCR); format: cell-based; conditions: average cellular EC50, XBP-1 splicing in myeloma cells
Description: Human myeloma MM.1s cells are incubated with a compound for 1.25 hours before stressing the cells with 2 mM dithiothreitol (DTT). After an additional 45 minutes (2 hours total) with compound and DTT, the cells are harvested with TRIZOL® (a mono-phasic solution of phenol and guanidine isothiocyanate), and total RNA is prepared as directed by the manufacturer (Invitrogen). Human XBP-1 is amplified by RT-PCR with the following primers, which flank the 26 base unconventional intron excised by IRE-1α:
RT-PCR of unstressed (U) cells then generates the upper band. When cells are stressed (S) with the endoplasmic reticulum (ER) stressing agent DTT, IRE-1α is activated due to accumulating unfolded protein and the resulting RT-PCR product is 26 base pairs shorter.
Compounds which pass specificity assays are assayed for cellular EC50 using endogenous XBP-1 splicing in myeloma cells. XBP-1 is regulated through the excision of a 26 nucleotide intron from the XBP-1 mRNA by the highly specific endoribonuclease activity of IRE-1α. […] This splicing event is used to measure IRE-1α activity on XBP-1 mRNA in cells and tissues.
Briefly, compounds are incubated in the presence or absence of an ER stress agent (e.g., DTT), and the ratio of XBP-1u (unspliced) to XBP-1s (spliced) is quantified by RT-PCR. The ED50 is determined as the 50% XBP-1s to total XPB-1 levels.

Sequence of IRE-1α (O75460 19-977): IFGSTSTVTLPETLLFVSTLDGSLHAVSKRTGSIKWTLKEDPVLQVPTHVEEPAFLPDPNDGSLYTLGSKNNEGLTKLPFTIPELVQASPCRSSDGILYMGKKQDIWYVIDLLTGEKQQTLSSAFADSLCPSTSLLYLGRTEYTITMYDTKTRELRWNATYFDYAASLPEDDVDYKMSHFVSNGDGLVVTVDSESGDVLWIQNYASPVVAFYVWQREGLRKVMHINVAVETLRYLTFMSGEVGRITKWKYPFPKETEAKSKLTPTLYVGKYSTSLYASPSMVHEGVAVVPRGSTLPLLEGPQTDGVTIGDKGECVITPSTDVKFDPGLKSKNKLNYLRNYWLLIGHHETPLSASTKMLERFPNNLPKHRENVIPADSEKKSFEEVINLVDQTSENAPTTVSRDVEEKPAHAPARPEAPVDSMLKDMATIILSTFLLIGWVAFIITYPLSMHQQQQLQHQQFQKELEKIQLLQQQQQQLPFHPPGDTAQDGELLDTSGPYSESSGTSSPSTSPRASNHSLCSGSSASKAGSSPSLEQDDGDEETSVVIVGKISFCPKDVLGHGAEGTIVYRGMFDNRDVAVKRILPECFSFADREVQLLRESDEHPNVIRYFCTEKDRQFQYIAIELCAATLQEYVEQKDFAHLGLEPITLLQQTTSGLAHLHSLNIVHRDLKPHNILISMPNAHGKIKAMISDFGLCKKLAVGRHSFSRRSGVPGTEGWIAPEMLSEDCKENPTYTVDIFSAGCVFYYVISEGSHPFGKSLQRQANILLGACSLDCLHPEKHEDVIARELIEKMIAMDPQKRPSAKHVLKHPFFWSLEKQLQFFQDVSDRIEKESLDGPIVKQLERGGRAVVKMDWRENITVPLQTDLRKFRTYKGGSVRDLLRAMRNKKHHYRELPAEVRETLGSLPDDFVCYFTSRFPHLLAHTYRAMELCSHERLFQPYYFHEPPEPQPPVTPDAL

SMILES | EC50 [µM]
Cn1c(CCC(=O)O)nc2ccc(O)c(C=O)c21 [Example 240] | > 10
COCCNC(=O)CCc1nc2c(C=O)c(O)ccc2n1C [Example 241] | > 10
Cn1c(CCC(=O)N2CCOCC2)nc2c(C=O)c(O)ccc21 [Example 242] | > 10
Cn1c(CCC(=O)NCCN2CCOCC2)nc2c(C=O)c(O)ccc21 [Example 243] | > 10
CN1CCN(C(=O)CCc2nc3c(C=O)c(O)ccc3n2C)CC1 [Example 244] | > 10
CCOC(=O)CCc1nc2c(C=O)c(O)ccc2n1C [Example 245] | < 10
Cn1c(CCC(=O)O)nc2c(C=O)c(O)ccc21 [Example 246] | > 10
CCOC(=O)CCc1nc2c(C=O)c(O)ccc2o1 [Example 247] | > 10
O=Cc1c(O)ccc2oc(CCC(=O)O)nc12 [Example 248] | > 10
COCCNC(=O)CCc1nc2c(C=O)c(O)ccc2o1 [Example 249] | > 10
O=Cc1c(O)ccc2oc(CCC(=O)N3CCOCC3)nc12 [Example 250] | > 10
CN1CCN(C(=O)CCc2nc3c(C=O)c(O)ccc3o2)CC1 [Example 251] | > 10
CCNC(=O)CCc1nc2c(C=O)c(O)ccc2o1 [Example 252] | > 10
O=Cc1c(O)ccc2oc(CCC(=O)NCCN3CCOCC3)nc12 [Example 253] | < 10
CC(C(=O)N1CCOCC1)c1nc2c(C=O)c(O)ccc2o1 (centres unmarked) [Example 254] | > 10
Cc1nc2c(C=O)c(O)ccc2o1 [Example 255] | < 10
Cc1nc2ccc(O)c(C=O)c2o1 [Example 256] | > 10
O=Cc1c(O)ccc2ocnc12 [Example 257] | > 10
COCCNC(=O)c1cc2c(C=O)c(O)ccc2s1 [Example 258] | > 10
O=Cc1c(O)ccc2sc(C(=O)N3CCOCC3)cc12 [Example 259] | > 10
CN1CCN(C(=O)c2cc3c(C=O)c(O)ccc3s2)CC1 [Example 260] | > 10
CCNC(=O)c1cc2c(C=O)c(O)ccc2s1 [Example 261] | < 10
O=Cc1c(O)ccc2sc(C(=O)NCCN3CCOCC3)cc12 [Example 262] | < 10

SMILES | EC50 [µM]
CN(C)CCNC(=O)c1cc2c(C=O)c(O)ccc2s1 [Example 263] | > 10
COC(=O)Cc1cc2c(C=O)c(O)ccc2s1 [Example 264] | > 10
O=Cc1c(O)ccc2sc(CC(=O)O)cc12 [Example 265] | > 10
COCCNC(=O)CCc1cc2c(C=O)c(O)ccc2s1 [Example 266] | < 10
CCOC(=O)CCc1cc2c(C=O)c(O)ccc2s1 [Example 267] | > 10
O=Cc1c(O)ccc2sc(CCC(=O)N3CCOCC3)cc12 [Example 268] | > 10
CCNC(=O)CCc1cc2c(C=O)c(O)ccc2s1 [Example 269] | > 10
CN(C)CCNC(=O)CCc1cc2c(C=O)c(O)ccc2s1 [Example 271] | < 10
COCCNC(=O)c1cc2c(C=O)c(O)ccc2[nH]1 [Example 273] | > 10
O=Cc1c(O)ccc2[nH]c(C(=O)N3CCOCC3)cc12 [Example 274] | > 10
CN1CCN(C(=O)c2cc3c(C=O)c(O)ccc3[nH]2)CC1 [Example 275] | > 10
CCNC(=O)c1cc2c(C=O)c(O)ccc2[nH]1 [Example 276] | > 10
O=Cc1c(O)ccc2[nH]c(C(=O)NCCN3CCOCC3)cc12 [Example 277] | > 10
CN(C)CCNC(=O)c1cc2c(C=O)c(O)ccc2[nH]1 [Example 278] | > 10
CCOC(=O)c1cc2c(C=O)c(O)ccc2[nH]1 [Example 279] | > 10
CCOC(=O)c1cc2c(C=O)c(O)ccc2o1 [Example 280] | > 10
O=Cc1c(O)ccc2oc(C(=O)O)cc12 [Example 281] | > 10
COCCNC(=O)c1cc2c(C=O)c(O)ccc2o1 [Example 282] | > 10
O=Cc1c(O)ccc2oc(C(=O)N3CCOCC3)cc12 [Example 283] | > 10
CN1CCN(C(=O)c2cc3c(C=O)c(O)ccc3o2)CC1 [Example 284] | > 10
CCNC(=O)c1cc2c(C=O)c(O)ccc2o1 [Example 285] | < 10
O=Cc1c(O)ccc2oc(C(=O)NCCN3CCOCC3)cc12 [Example 286] | < 10

system: human myeloma RPMI8226 tumor xenografts; assay: RPMI8226 xenograft efficacy model; format: in vivo, SCID mice; conditions: after cessation of therapy
Description: SCID mice are evaluated for their ability to support implantation of desired tumor cells in support of model development and characterization. Mice are injected intravenously […] or implanted either subcutaneously (SC) or intraperitoneally (IP). To generate a relevant animal model mimicking human disease, it is desirable that all three approaches are evaluated for improved implantation rates and relevant disease progression, as is well known in the art. SC injections provide an easy way to measure tumor growth and efficacy, and IV and IP injections represent a more physiologically relevant model of human tumor spread. SC injections are given primarily in the flank, while IV injections are administered in the tail vein. Mice are manually restrained for SC and IP injections, and a Broome mouse restrainer is used for IV injections.
SCID mice are implanted with tumor cells (human RPMI8226 myeloma cells) via IP, IV or SC routes based on the results from the xenograft model development studies (above). Mice are treated with compound or mock treated (vehicle) for a period of up to 4-5 weeks. Compound administration can be via IV, IP, PO or SC routes. […]
Mice are monitored for tumor growth, regression and general health. […] Tumor growth is measured by calipers, ultrasound, or by abdominal lavage. Biomarkers in the blood or tumor can evaluated (primarily XBP-1 splicing). […]

SMILES | tumor recurrence
CC(C)C[C@H](NC(=O)[C@H](Cc1ccccc1)NC(=O)c1cnccn1)B(O)O [bortezomib, [(1R)-3-methyl-1-[[(2S)-1-oxo-3-phenyl-2-[(pyrazinylcarbonyl)amino]propyl]amino]butyl]boronic acid] | tumors often recurred and grew into large masses

system: XBP-1 splicing; assay: Inhibition of endogenous XBP-1 splicing in RPMI 8226 cells with thapsigargin (RT-PCR); format: cell-based, human; conditions: 300 nM, 2 hours
Description: PCR amplification products were run on a 4% agarose gel and stained with ethidium bromide. The inverse image is shown.
RPMI 8226 cells were grown in monolayer culture using Dulbecco's Modified Eagle Medium (DMEM) supplemented with 10% fetal calf serum (FCS) at 37° C. and 5% CO2. Compounds were kept as 10 mM stock in DMSO at −20° C. and diluted in medium to 10 μM. Thapsigargin (Tg) was resuspended in DMSO and diluted in medium.
Procedures for measuring XBP-1s and XBP-1u mRNAs have been described previously (Volkmann et al., J. Biol. Chem. 286, 12743-55, 2011). Briefly, total RNA was harvested from cells or tissue using TRIZOL® (Invitrogen) according to the manufacture's procedures. After ethanol precipitation and resuspension of the RNA, RIBOGREEN® (Invitrogen) was used to quantify the yield- and normalize the RNA concentration in the source tube containing isolated RNA. RT-PCR was performed by oligo dT priming, […]® II (Invitrogen) and reverse transcription using the […] GOLD® Kit (Applied Biosystems) according to the manufacturer's protocols. Primers for human XBP-1 were
All DNA oligos were purchased from IDT DNA Technologies. PCR reactions were run on a Bio-Rad PTC-100® 96-well thermocycler; heating at 94° C. for 30 seconds, annealing at 58° C. for 30 seconds polymerizing at 72° C. for 30 seconds for 35 cycles.

SMILES | conversion of XBP-1u to XBP-1s
C/C=C(/C)C(=O)O[C@H]1C(C)=C2[C@H]([C@@H]1OC(=O)CCCCCCC)[C@@](C)(OC(C)=O)C[C@H](OC(=O)CCC)[C@@]1(O)[C@H]2OC(=O)[C@@]1(C)O [Thapsigargin] | near complete conversion of XBP-1u to XBP-1s
